From US20230085307A1, “PYRIDAZINONE COMPOUND AND HERBICIDE” (NISSAN CHEMICAL CORPORATION, priority 2019, published 2023)

Legend:
[1] = system: late watergrass; assay: Test Example 1: herbicidal activity, application before weed generation under submerged conditions (Table 16, symbol A); type: in vivo, late watergrass (Echinochloa oryzicola)
Procedure, shortened: (§1)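 Submerged Wagner pots (alluvial soil, 4 cm water) sown with weed seeds and planted with 2.5-leaf rice seedlings; emulsifiable concentrate diluted in water applied to water surface on sowing day. Held in greenhouse at 25-30 °C; injury scored 0-5 by herbicidal rate after three weeks.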

[2] = system: velvetleaf; assay: Test Example 5: herbicidal effect by foliage application, plastic box (Table 20, symbol M); type: in vivo, velvetleaf (Abutilon theophrasti); settings: evaluated three weeks after application
Procedure, shortened: (§2)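 Post-emergence foliar test in sterilized diluvial soil. Compound applied as water-diluted emulsion at a predetermined rate to 14-day-old plants; evaluation at three weeks.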

[3] = system: green foxtail; assay: Test Example 4: herbicidal effect by soil treatment (Table 19, symbol G); type: in vivo, green foxtail (Setaria viridis); settings: amount of applied herbicide 320 g/ha
Procedure, shortened: (§3)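 Scoring uses the grading scale of an earlier test, three weeks post-application. Treatment consists of spraying a diluted emulsion formulation across the surface of sterilized diluvial soil in which seeds are buried near 1.5 cm deep; boxes are kept in a greenhouse between 25° C. and 30° C.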

[4] = system: chickweed; assay: Test Example 5: herbicidal effect by foliage application, plastic box (Table 20, symbol P); type: in vivo, common chickweed (Stellaria media); settings: evaluated three weeks after application
Procedure, shortened: as §2

[5] = system: southern crabgrass; assay: Test Example 5: herbicidal effect by foliage application, plastic box (Table 20, symbol F); type: in vivo, southern crabgrass (Digitaria ciliaris); settings: evaluated three weeks after application
Procedure, shortened: as §2

[6] = system: chickweed; assay: Test Example 4: herbicidal effect by soil treatment (Table 19, symbol P); type: in vivo, common chickweed (Stellaria media); settings: amount of applied herbicide 320 g/ha
Procedure, shortened: as §3

[7] = system: wild oat; assay: Test Example 4: herbicidal effect by soil treatment (Table 19, symbol I); type: in vivo, wild oat (Avena fatua); settings: amount of applied herbicide 320 g/ha
Procedure, shortened: as §3

[8] = system: oval-leafed pondweed; assay: Test Example 1: herbicidal activity, application before weed generation under submerged conditions (Table 16, symbol C); type: in vivo, oval-leafed pondweed (Monochoria vaginalis)
Procedure, shortened: as §1

[9] = system: Italian ryegrass; assay: Test Example 5: herbicidal effect by foliage application, plastic box (Table 20, symbol K); type: in vivo, Italian ryegrass (Lolium multiflorum); settings: evaluated three weeks after application
Procedure, shortened: as §2

[10] = system: barnyard grass; assay: Test Example 3: herbicidal effect by foliage application, Wagner pot (Table 18, symbol H); type: in vivo, barnyard grass (Echinochloa crus-galli)
Procedure, shortened: (§4)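 Plants were sown in alluvial soil held under 0.1–0.5 cm standing water and grown 14 days in a greenhouse at 25–30 °C. An emulsifiable formulation, water-diluted to the set dose, was then sprayed onto the foliage, and effects were scored three weeks later using previously defined criteria.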

[11] = system: Italian ryegrass; assay: Test Example 4: herbicidal effect by soil treatment (Table 19, symbol K); type: in vivo, Italian ryegrass (Lolium multiflorum); settings: amount of applied herbicide 320 g/ha
Procedure, shortened: as §3

[12] = system: windgrass; assay: Test Example 5: herbicidal effect by foliage application, plastic box (Table 20, symbol L); type: in vivo, windgrass (Apera spica-venti); settings: evaluated three weeks after application
Procedure, shortened: as §2

[13] = system: persian speedwell; assay: Test Example 5: herbicidal effect by foliage application, plastic box (Table 20, symbol R); type: in vivo, Persian speedwell (Veronica persica); settings: evaluated three weeks after application
Procedure, shortened: as §2

[14] = system: lambsquarters; assay: Test Example 5: herbicidal effect by foliage application, plastic box (Table 20, symbol O); type: in vivo, lambsquarters (Chenopodium album); settings: evaluated three weeks after application
Procedure, shortened: as §2

[15] = system: rice flat sedge; assay: Test Example 3: herbicidal effect by foliage application, Wagner pot (Table 18, symbol E); type: in vivo, rice flat sedge (Cyperus iria)
Procedure, shortened: as §4

[16] = system: velvetleaf; assay: Test Example 4: herbicidal effect by soil treatment (Table 19, symbol M); type: in vivo, velvetleaf (Abutilon theophrasti); settings: amount of applied herbicide 320 g/ha
Procedure, shortened: as §3

[17] = system: persian speedwell; assay: Test Example 4: herbicidal effect by soil treatment (Table 19, symbol R); type: in vivo, Persian speedwell (Veronica persica); settings: amount of applied herbicide 320 g/ha
Procedure, shortened: as §3

[18] = system: wild oat; assay: Test Example 5: herbicidal effect by foliage application, plastic box (Table 20, symbol I); type: in vivo, wild oat (Avena fatua); settings: evaluated three weeks after application
Procedure, shortened: as §2

[19] = system: barnyard grass; assay: Test Example 4: herbicidal effect by soil treatment (Table 19, symbol H); type: in vivo, barnyard grass (Echinochloa crus-galli); settings: amount of applied herbicide 320 g/ha
Procedure, shortened: as §3

[20] = system: barnyard grass; assay: Test Example 5: herbicidal effect by foliage application, plastic box (Table 20, symbol H); type: in vivo, barnyard grass (Echinochloa crus-galli); settings: evaluated three weeks after application
Procedure, shortened: as §2

[21] = system: green foxtail; assay: Test Example 5: herbicidal effect by foliage application, plastic box (Table 20, symbol G); type: in vivo, green foxtail (Setaria viridis); settings: evaluated three weeks after application
Procedure, shortened: as §2

[22] = system: Chinese sprangletop; assay: Test Example 3: herbicidal effect by foliage application, Wagner pot (Table 18, symbol D); type: in vivo, chinese sprangletop (Leptochloa chinensis)
Procedure, shortened: as §4

[23] = system: redroot pigweed; assay: Test Example 4: herbicidal effect by soil treatment (Table 19, symbol N); type: in vivo, redroot pigweed (Amaranthus retroflexus); settings: amount of applied herbicide 320 g/ha
Procedure, shortened: as §3

[24] = system: blackgrass; assay: Test Example 4: herbicidal effect by soil treatment (Table 19, symbol J); type: in vivo, blackgrass (Alopecurus myosuroides); settings: amount of applied herbicide 320 g/ha
Procedure, shortened: as §3

[25] = system: southern crabgrass; assay: Test Example 4: herbicidal effect by soil treatment (Table 19, symbol F); type: in vivo, southern crabgrass (Digitaria ciliaris); settings: amount of applied herbicide 320 g/ha
Procedure, shortened: as §3

[26] = system: Japanese bulrush; assay: Test Example 1: herbicidal activity, application before weed generation under submerged conditions (Table 16, symbol B); type: in vivo, Japanese bulrush (Schoenoplectus juncoides)
Procedure, shortened: as §1

[27] = system: windgrass; assay: Test Example 4: herbicidal effect by soil treatment (Table 19, symbol L); type: in vivo, windgrass (Apera spica-venti); settings: amount of applied herbicide 320 g/ha
Procedure, shortened: as §3

[28] = system: redroot pigweed; assay: Test Example 5: herbicidal effect by foliage application, plastic box (Table 20, symbol N); type: in vivo, redroot pigweed (Amaranthus retroflexus); settings: evaluated three weeks after application
Procedure, shortened: as §2

[29] = system: lambsquarters; assay: Test Example 4: herbicidal effect by soil treatment (Table 19, symbol O); type: in vivo, lambsquarters (Chenopodium album); settings: amount of applied herbicide 320 g/ha
Procedure, shortened: as §3

[30] = system: blackgrass; assay: Test Example 5: herbicidal effect by foliage application, plastic box (Table 20, symbol J); type: in vivo, blackgrass (Alopecurus myosuroides); settings: evaluated three weeks after application
Procedure, shortened: as §2

[31] = amount of applied herbicide 320 g/ha
[32] = amount of applied herbicide 320 g/ha, foliage application after 14-day growth

SMILES: Cc1nn(C)c(=O)c(-c2c(-c3ccccc3Cl)sc3ccc(F)cc23)c1O [2-203]
- Herbicidal effect on A: late watergrass (grade 0-5) ([1]; 320 g/ha applied herbicide): 2 (Herbicidal rate of 20% or more and less than 40%)
- herbicidal effect on M: velvetleaf (criteria 0-5) ([2]; foliage application, 320 g/ha): 4 (Herbicidal rate of 70% or more and less than 90%)
- G: green foxtail, herbicidal effect rating [3]: 0 (Herbicidal rate of 5% or less (almost no effect))
- herbicidal effect on P: chickweed (criteria 0-5) ([4]; foliage application, 320 g/ha): 5 (Herbicidal rate of 90% or more (almost completely withered))
- herbicidal effect on F: southern crabgrass (criteria 0-5) ([5]; foliage application, 320 g/ha): 0 (Herbicidal rate of 5% or less (almost no effect))
- P: chickweed, herbicidal effect rating [6]: 3 (Herbicidal rate of 40% or more and less than 70%)
- I: wild oat, herbicidal effect rating [7]: 0 (Herbicidal rate of 5% or less (almost no effect))
- Herbicidal effect on C: oval-leafed pondweed (grade 0-5) ([8]; 320 g/ha applied herbicide): 0 (Herbicidal rate of 5% or less (almost no effect))
- herbicidal effect on K: Italian ryegrass (criteria 0-5) ([9]; foliage application, 320 g/ha): 2 (Herbicidal rate of 20% or more and less than 40%)
- herbicidal effect on H: barnyard grass [10, 31]: 4 (Herbicidal rate of 70% or more and less than 90%)
- K: Italian ryegrass, herbicidal effect rating [11]: 0 (Herbicidal rate of 5% or less (almost no effect))
- herbicidal effect on L: windgrass (criteria 0-5) ([12]; foliage application, 320 g/ha): 4 (Herbicidal rate of 70% or more and less than 90%)
- herbicidal effect on R: persian speedwell (criteria 0-5) ([13]; foliage application, 320 g/ha): 4 (Herbicidal rate of 70% or more and less than 90%)
- herbicidal effect on O: lambsquarters (criteria 0-5) ([14]; foliage application, 320 g/ha): 3 (Herbicidal rate of 40% or more and less than 70%)
- herbicidal effect on E: rice flat sedge [15, 31]: 5 (Herbicidal rate of 90% or more (almost completely withered))
- M: velvetleaf, herbicidal effect rating [16]: 1 (Herbicidal rate of 5% or more and less than 20%)
- R: persian speedwell, herbicidal effect rating [17]: 0 (Herbicidal rate of 5% or less (almost no effect))
- herbicidal effect on I: wild oat (criteria 0-5) ([18]; foliage application, 320 g/ha): 0 (Herbicidal rate of 5% or less (almost no effect))
- H: barnyard grass, herbicidal effect rating [19]: 0 (Herbicidal rate of 5% or less (almost no effect))
- herbicidal effect on H: barnyard grass (criteria 0-5) ([20]; foliage application, 320 g/ha): 2 (Herbicidal rate of 20% or more and less than 40%)
- herbicidal effect on G: green foxtail (criteria 0-5) ([21]; foliage application, 320 g/ha): 4 (Herbicidal rate of 70% or more and less than 90%)
- herbicidal effect on D: Chinese sprangletop [22, 31]: 4 (Herbicidal rate of 70% or more and less than 90%)
- N: redroot pigweed, herbicidal effect rating [23]: 2 (Herbicidal rate of 20% or more and less than 40%)
- J: blackgrass, herbicidal effect rating [24]: 0 (Herbicidal rate of 5% or less (almost no effect))
- F: southern crabgrass, herbicidal effect rating [25]: 0 (Herbicidal rate of 5% or less (almost no effect))
- Herbicidal effect on B: Japanese bulrush (grade 0-5) ([26]; 320 g/ha applied herbicide): 0 (Herbicidal rate of 5% or less (almost no effect))
- L: windgrass, herbicidal effect rating [27]: 0 (Herbicidal rate of 5% or less (almost no effect))
- herbicidal effect on N: redroot pigweed (criteria 0-5) ([28]; foliage application, 320 g/ha): 3 (Herbicidal rate of 40% or more and less than 70%)
- O: lambsquarters, herbicidal effect rating [29]: 3 (Herbicidal rate of 40% or more and less than 70%)
- herbicidal effect on J: blackgrass (criteria 0-5) ([30]; foliage application, 320 g/ha): 0 (Herbicidal rate of 5% or less (almost no effect))

SMILES: Cc1nn(C)c(=O)c(-c2c(-c3ccc(OC(C)C)cc3)sc3cc(F)c(F)cc23)c1O [5-019]
- Herbicidal effect, A: late watergrass [1, 31]: 3 (Herbicidal rate of 40% or more and less than 70%)
- Herbicidal effect by foliage application, M: velvetleaf [2, 32]: 4 (Herbicidal rate of 70% or more and less than 90%)
- G: green foxtail, herbicidal effect grade [3]: 3 (Herbicidal rate of 40% or more and less than 70%)
- Herbicidal effect by foliage application, P: chickweed [4, 32]: 5 (Herbicidal rate of 90% or more (almost completely withered))
- Herbicidal effect by foliage application, F: southern crabgrass [5, 32]: 4 (Herbicidal rate of 70% or more and less than 90%)
- P: chickweed, herbicidal effect grade [6]: 1 (Herbicidal rate of 5% or more and less than 20%)
- I: wild oat, herbicidal effect grade [7]: 0 (Herbicidal rate of 5% or less (almost no effect))
- Herbicidal effect, C: oval-leafed pondweed [8, 31]: 0 (Herbicidal rate of 5% or less (almost no effect))
- Herbicidal effect by foliage application, K: Italian ryegrass [9, 32]: 3 (Herbicidal rate of 40% or more and less than 70%)
- herbicidal effect on barnyard grass (H) ([10]; 320 g/ha): 4 (Herbicidal rate of 70% or more and less than 90%)
- K: Italian ryegrass, herbicidal effect grade [11]: 0 (Herbicidal rate of 5% or less (almost no effect))
- Herbicidal effect by foliage application, L: windgrass [12, 32]: 0 (Herbicidal rate of 5% or less (almost no effect))
- Herbicidal effect by foliage application, R: persian speedwell [13, 32]: 5 (Herbicidal rate of 90% or more (almost completely withered))
- Herbicidal effect by foliage application, O: lambsquarters [14, 32]: 3 (Herbicidal rate of 40% or more and less than 70%)
- herbicidal effect on rice flat sedge (E) ([15]; 320 g/ha): 1 (Herbicidal rate of 5% or more and less than 20%)
- M: velvetleaf, herbicidal effect grade [16]: 3 (Herbicidal rate of 40% or more and less than 70%)
- R: persian speedwell, herbicidal effect grade [17]: 4 (Herbicidal rate of 70% or more and less than 90%)
- Herbicidal effect by foliage application, I: wild oat [18, 32]: 0 (Herbicidal rate of 5% or less (almost no effect))
- H: barnyard grass, herbicidal effect grade [19]: 0 (Herbicidal rate of 5% or less (almost no effect))
- Herbicidal effect by foliage application, H: barnyard grass [20, 32]: 4 (Herbicidal rate of 70% or more and less than 90%)
- Herbicidal effect by foliage application, G: green foxtail [21, 32]: 4 (Herbicidal rate of 70% or more and less than 90%)
- herbicidal effect on Chinese sprangletop (D) ([22]; 320 g/ha): 0 (Herbicidal rate of 5% or less (almost no effect))
- N: redroot pigweed, herbicidal effect grade [23]: 4 (Herbicidal rate of 70% or more and less than 90%)
- J: blackgrass, herbicidal effect grade [24]: 0 (Herbicidal rate of 5% or less (almost no effect))
- F: southern crabgrass, herbicidal effect grade [25]: 0 (Herbicidal rate of 5% or less (almost no effect))
- Herbicidal effect, B: Japanese bulrush [26, 31]: 0 (Herbicidal rate of 5% or less (almost no effect))
- L: windgrass, herbicidal effect grade [27]: 0 (Herbicidal rate of 5% or less (almost no effect))
- Herbicidal effect by foliage application, N: redroot pigweed [28, 32]: 5 (Herbicidal rate of 90% or more (almost completely withered))
- O: lambsquarters, herbicidal effect grade [29]: 2 (Herbicidal rate of 20% or more and less than 40%)
- Herbicidal effect by foliage application, J: blackgrass [30, 32]: 0 (Herbicidal rate of 5% or less (almost no effect))
